Results taken from patent US20120065126A1, “Pharmaceutical Compositions Containing Antifungal Peptides” (BASF SE, priority 2009, published 2012).

Tests used:
[1] = tested on: Malassezia furfur; test: Growth inhibition at equal concentrations by weight of P18, zinc pyrithione, climbazole, ketoconazole (CFU); format: cell-based
Procedure: The studies described hereinafter were conducted on the Malassezia furfur strain DSM 6170.
For this purpose, the procedure was as follows:
The growth test was effected as follows: a shake culture containing M472 Pityrosporum medium was inoculated with M. furfur and incubated with shaking at 30° C. and 200 rpm overnight.
A 96-well microtiter plate was filled with 100 μl per well of M472 Pityrosporum medium and inoculated with M. furfur suspension from the overnight culture. The M. furfur suspension was adjusted at the start of the experiment to an optical density, measured at 600 nm, of 0.02. The concentrates of the inhibitor solutions were 1 mM in DMSO for P18 peptide and 10 mM in DMSO for zinc pyrithione, ketoconazole and climbazole. The final DMSO concentration was kept the same in all experiments.
The following growth was compared by measuring the optical density: • M. furfur suspension and addition of the P18 solution with a final concentration of 50 μM (corresponds to 0.0115% (w/w)) • M. furfur suspension and addition of the zinc pyrithione (ZPT) solution with a final concentration of 362 μM (comparison to the mixture containing 50 μM P18 peptide) • M. furfur suspension and addition of the ketoconazole solution with a final concentration of 216 μM (comparison to the mixture containing 50 μM P18 peptide) • M. furfur suspension and addition of the climbazole solution with a final concentration of 390 μM (comparison to the mixture containing 50 μM P18 peptide)
The microtiter plate was incubated with shaking at 30° C.
[…] After incubation over the course of 6 days, the colonies on the plate were counted. The CFU was determined in order to rule out any influence of the biphasic medium, and also the growth form of M. furfur, on the optical density. The experiments were each conducted in double determination, at least in two independent experiments.

[2] = tested on: Staphylococcus epidermidis (DSM 1798); test: Short-term effect (CFU); format: cell-based; conditions: for Inhibition in words: up to 60 minutes
Procedure: For this purpose, the procedure was as follows.
TSBY growth medium: Ready-made TSB medium (Becton, Dickinson and Company, Sparks, USA); 17 g of pancreatin-degraded casein 3 g of pancreatin-degraded soya 2.5 g of dextrose 5 g of sodium chloride 2.5 g of dipotassium phosphate 3 g of yeast extract (Becton, Dickinson and Company, Sparks, USA) make up to 1 liter, set pH 7
The growth test was effected as follows: 5 ml of TSBY medium were inoculated with S. epidermidis and incubated at 37° C. and 200 rpm overnight.
1.5 ml reaction vessels were each filled with 1 ml of TSBY medium and inoculated with S. epidermidis suspension from the overnight culture. The S. epidermidis suspension was adjusted at the start of the experiment to an optical density, measured at 600 nm, of 0.1. The concentration of the peptide solution in water or ZPT solution (zinc pyrithione, >96%, Sigma Aldrich) dissolved in DMSO was 2% (w/w).
The following growth was compared: • S. epidermidis suspension and addition of P18 peptide with a final concentration in the 1.5 ml reaction vessel of 50 ppm after 5 minutes, 10 minutes, 20 minutes and 60 minutes • S. epidermidis suspension and addition of P18 peptide with a final concentration in the 1.5 ml reaction vessel of 100 ppm after 5 minutes, 10 minutes, 20 minutes and 60 minutes • S. epidermidis suspension and addition of P18 peptide with a final concentration in the 1.5 ml reaction vessel of 200 ppm after 5 minutes, 10 minutes, 20 minutes and 60 minutes • S. epidermidis suspension and addition of P18 peptide with a final concentration in the 1.5 ml reaction vessel of 500 ppm after 5 minutes, 10 minutes, 20 minutes and 60 minutes • S. epidermidis suspension and addition of P18 peptide with a final concentration in the 1.5 ml reaction vessel of 1000 ppm after 5 minutes, 10 minutes, 20 minutes and 60 minutes • S. epidermidis suspension and addition of ZPT with a final concentration in the 1.5 ml reaction vessel of 50 ppm after 5 minutes, 10 minutes, 20 minutes and 60 minutes • S. epidermidis suspension and addition of ZPT with a final concentration in the 1.5 ml reaction vessel of 100 ppm after 5 minutes, 10 minutes, 20 minutes and 60 minutes • S. epidermidis suspension and addition of ZPT with a final concentration in the 1.5 ml reaction vessel of 200 ppm after 5 minutes, 10 minutes, 20 minutes and 60 minutes • S. epidermidis suspension and addition of ZPT with a final concentration in the 1.5 ml reaction vessel of 500 ppm after 5 minutes, 10 minutes, 20 minutes and 60 minutes • S. epidermidis suspension and addition of ZPT with a final concentration in the 1.5 ml reaction vessel of 1000 ppm after 5 minutes, 10 minutes, 20 minutes and 60 minutes
The 1.5 ml reaction vessels were incubated at room temperature.
After the incubation times specified, the colony forming units (CFU) were determined by streaking 1 μl of each of the suspensions diluted in 20 μl of TSBY medium and, after incubation for 2 days, counting the colonies.

H-KWKLFKKIPKFLHLAKKF-NH2 [P18, H-KWKLFKKIPKFLHLAKKF-NH2]
Colony forming units (CFU) ([1]; final conc. 50 μM (0.0115% (w/w)), 24 h): 1 ± 1 CFU
Colony forming units (CFU) ([1]; final conc. 50 μM (0.0115% (w/w)), 40 h): 0 ± 0 CFU
Colony forming units after the incubation time specified ([2]; 50 ppm, 5 minutes): 221 ± 5 CFU
Colony forming units after the incubation time specified ([2]; 50 ppm, 10 minutes): 19 ± 3 CFU
Colony forming units after the incubation time specified ([2]; 50 ppm, 20 minutes): 4.75 ± 0.4 CFU
Colony forming units after the incubation time specified ([2]; 50 ppm, 60 minutes): 0.75 ± 0.4 CFU
Colony forming units after the incubation time specified ([2]; 100 ppm, 5 minutes): 171 ± 219 CFU
Colony forming units after the incubation time specified ([2]; 100 ppm, 10 minutes): 6.5 ± 4.2 CFU
Colony forming units after the incubation time specified ([2]; 100 ppm, 20 minutes): 0.5 ± 0 CFU
Colony forming units after the incubation time specified ([2]; 100 ppm, 60 minutes): 0 ± 0 CFU
Colony forming units after the incubation time specified ([2]; 200 ppm, 5 minutes): 14 ± 18 CFU
Colony forming units after the incubation time specified ([2]; 200 ppm, 10 minutes): 5.75 ± 4.6 CFU
Colony forming units after the incubation time specified ([2]; 200 ppm, 20 minutes): 0.25 ± 0.4 CFU
Colony forming units after the incubation time specified ([2]; 200 ppm, 60 minutes): 0 ± 0 CFU
Colony forming units after the incubation time specified ([2]; 500 ppm, 5 minutes): 19 ± 22 CFU
Colony forming units after the incubation time specified ([2]; 500 ppm, 10 minutes): 0.25 ± 0.4 CFU
Colony forming units after the incubation time specified ([2]; 500 ppm, 20 minutes): 0.75 ± 1.1 CFU
Colony forming units after the incubation time specified ([2]; 500 ppm, 60 minutes): 0 ± 0 CFU
Colony forming units after the incubation time specified ([2]; 1000 ppm, 5 minutes): 1.25 ± 0.4 CFU
Colony forming units after the incubation time specified ([2]; 1000 ppm, 10 minutes): 0 ± 0 CFU
Colony forming units after the incubation time specified ([2]; 1000 ppm, 20 minutes): 0 ± 0 CFU
Colony forming units after the incubation time specified ([2]; 1000 ppm, 60 minutes): 0 ± 0 CFU

zinc pyrithione [ZPT]
Colony forming units (CFU) ([1]; final conc. 362 μM, 24 h): 60 ± 40 CFU
Colony forming units (CFU) ([1]; final conc. 362 μM, 40 h): 26 ± 7 CFU
Inhibition in words ([2]; 50 ppm and 100 ppm): low inhibition
Colony forming units after the incubation time specified ([2]; 50 ppm, 5 minutes): 2000 ± 0 CFU
Colony forming units after the incubation time specified ([2]; 50 ppm, 10 minutes): 2000 ± 0 CFU
Colony forming units after the incubation time specified ([2]; 50 ppm, 20 minutes): 1033 ± 1368 CFU
Colony forming units after the incubation time specified ([2]; 50 ppm, 60 minutes): 522 ± 721 CFU
Colony forming units after the incubation time specified ([2]; 100 ppm, 5 minutes): 2000 ± 0 CFU
Colony forming units after the incubation time specified ([2]; 100 ppm, 10 minutes): 2000 ± 0 CFU
Colony forming units after the incubation time specified ([2]; 100 ppm, 20 minutes): 1200 ± 1131 CFU
Colony forming units after the incubation time specified ([2]; 100 ppm, 60 minutes): 707 ± 698 CFU
Colony forming units after the incubation time specified ([2]; 200 ppm, 5 minutes): 2000 ± 0 CFU
Colony forming units after the incubation time specified ([2]; 200 ppm, 10 minutes): 2000 ± 0 CFU
Colony forming units after the incubation time specified ([2]; 200 ppm, 20 minutes): 2000 ± 0 CFU
Colony forming units after the incubation time specified ([2]; 200 ppm, 60 minutes): 2000 ± 0 CFU
Colony forming units after the incubation time specified ([2]; 500 ppm, 5 minutes): 2000 ± 0 CFU
Colony forming units after the incubation time specified ([2]; 500 ppm, 10 minutes): 2000 ± 0 CFU
Colony forming units after the incubation time specified ([2]; 500 ppm, 20 minutes): 2000 ± 0 CFU
Colony forming units after the incubation time specified ([2]; 500 ppm, 60 minutes): 2000 ± 0 CFU
Colony forming units after the incubation time specified ([2]; 1000 ppm, 5 minutes): 2000 ± 0 CFU
Colony forming units after the incubation time specified ([2]; 1000 ppm, 10 minutes): 2000 ± 0 CFU
Colony forming units after the incubation time specified ([2]; 1000 ppm, 20 minutes): 2000 ± 0 CFU
Colony forming units after the incubation time specified ([2]; 1000 ppm, 60 minutes): 2000 ± 0 CFU
Inhibition in words ([2]; higher concentrations (200-1000 ppm)): no significant inhibition
